Assay results taken from patent US11246813B2, “Composition for preventing hair loss or promoting hair development, comprising irone as active ingredient” (INDUSTRY-ACADEMIC COOPERATION FOUNDATION, YONSEI UNIVERSITY, priority 2017, dated 2022).

Experiments:
Format in all cases: cell-based
Cyc-D = test: RT-PCR of Cyc-D mRNA in human hair dermal papilla cells; details: 20 μM, 24 hours
Protocol: (§1) In the present invention, in order to identify activity of alpha-irone on human hair dermal papilla cells (DPCs), when the DPCs reached 70% to 80% confluency, treatment with alpha-irone at 20 μM was performed, and then culture was performed under a condition of 5% CO2 and 37° C. 24 hours after the treatment, the cells were collected and total RNA was extracted with Trizol Reagent (Gibco BRL, USA). The total RNA was quantified by absorbance measurement at 260 nm.
(§2) After isolation of RNA, cDNA was synthesized by performing reverse transcription using oligo dT primers and SuperScript reverse transcriptase (GIBCOBRL, Gaithersburg, Md., USA). PCR was performed using, as a template, cDNA obtained through reverse transcription and using, as primers, 5′ and 3′ flanking sequences of the gene's cDNA to be amplified. Here, required primers were obtained by making a request for synthesis with a company specializing in primer manufacturing (BIONEER CORPORATION, Korea) and used. To a mixture obtained by mixing of 5 μl of 10× reaction buffer [100 mM KCL, 20 mM Tris-HCl (pH 8.0), 2.5 mM MgCl2], 4 μl of 10 mM dNTP, and 1 μl each of 0.2 μM sense and antisense primers, were added 2 μl of the completed cDNA reaction mixture and 2.5 unit of Taq polymerase (Takara, Japan). Then, the volume was adjusted with 50 μl of distilled water, and PCR was performed using a PCR instrument. […]

LEF = test: RT-PCR of LEF mRNA in human hair dermal papilla cells; details: 20 μM, 24 hours
Protocol: as §1, §2

IGF = test: RT-PCR of IGF-1 mRNA in human hair dermal papilla cells; details: 20 μM, 24 hours
Protocol: as §1, §2

VEGF [1] = test: RT-PCR of VEGF mRNA in human hair dermal papilla cells; details: 20 μM, 24 hours
Protocol: as §1, §2

β-catenin = test: Western blot of β-catenin in human hair dermal papilla cells; details: 20 μM
Protocol: (§3) The […] of human hair dermal papilla cells, obtained by performing treatment with alpha-irone at 20 μM and performing culture, was homogenized with a lysis buffer, and then centrifuged at 13,000×g for 20 minutes at 4° C. Protein quantification was performed by Bradford assay. 40 μg of the protein was electrophoresed on 10% SDS polyacrylamide gel and then transferred to nitrocellulose membranes. The protein was allowed to react with each of PKA Cα, β-catenin, β-actin, and GAPDH antibody (Cell Signaling Technology, Danvers, Mass., USA). Each protein's signal was visualized with a chemiluminescent detection system (Amersham), and then the band's thickness was quantified using the Quantity One Analysis Software (Bio-Rad Laboratories).

cAMP = cAMP ELISA in human hair dermal papilla cells; details: 20 μM, 24 hours, vs DMSO
Protocol: (§4) Human hair dermal papilla cells were purchased from PromoCell GmbH (Heidelberg, Germany). The human hair dermal papilla cells were cultured in an incubator at 37° C., 5% CO2 using HFDPC medium (PromoCell, Germany) with fetal bovine serum (FBS) and Dulbecco's modified Eagle's medium (DMEM; Gibco BRL, Gaithersburg, Md., USA). Due to the nature of the cells, cells at passages 2 to 5 were used for all experiments. The human hair dermal papilla cells were dispensed into 12-well plates to 3×10^4 cells/well, and then the culture solutions were treated with alpha-irone at 20 μM. DMSO was used as a negative control group. The alpha-irone-treated culture solutions were collected after 24 hours, and experiments were conducted using human VEGF ELISA Kit (Enzo Life Sciences, NY, USA), human IGF-1 ELISA kit (Enzo Life Sciences, NY, USA), and cAMP complete ELISA kit (Enzo Life Sciences, NY, USA), respectively, according to the manufacturers' protocol.

PKA Cα = test: Western blot of PKA Cα in human hair dermal papilla cells; details: 20 μM
Protocol: as §3

[2] = system: human hair dermal papilla cells; test: MTT assay, cell viability and proliferation in human hair dermal papilla cells
Protocol: Human hair dermal papilla cells were purchased from PromoCell GmbH (Heidelberg, Germany). The human hair dermal papilla cells were cultured in an incubator at 37° C., 5% CO2 using HFDPC medium (PromoCell, Germany) with fetal bovine serum (FBS) and Dulbecco's modified Eagle's medium (DMEM; Gibco BRL, Gaithersburg, Md., USA). Due to the nature of the cells, cells at passages 2 to 5 were used for all experiments. The human hair dermal papilla cells were dispensed into 24-well plates to 1×10^5 cells/well, and then cultured for 24 hours in an incubator at 37° C., 5% CO2 so that the cells are stabilized. Treatment with samples at respective concentrations (0, 10, 20, 50, 100, 200, 400 μg/ml) was performed and culture was performed for 24 hours. Then, treatment with 100 ul of 3-(4,5-dimethylthiazol-2-yl)-2,5-diphenyltetrazolium bromide (MTT; Sigma Aldrich, St. Louis, USA) reagent at a concentration of […] was performed and culture was performed again for 4 hours. After removing the medium, the precipitate (formazan) was dissolved in DMSO and the absorbance was measured at a wavelength of 540 nm. A proliferation rate thereof was evaluated based on the absorbance of a control group containing only DMSO.

IGF-1 = IGF-1 ELISA of culture solution of human hair dermal papilla cells; details: 20 μM, 24 hours, vs DMSO
Protocol: as §4

VEGF [3] = test: VEGF ELISA of culture solution of human hair dermal papilla cells; details: 20 μM, 24 hours, vs DMSO
Protocol: as §4

CC(=O)/C=C/C1C(C)=CCC(C)C1(C)C (stereo not drawn) [alpha-irone, (E)-4-(2,5,6,6-tetramethylcyclohex-2-en-1-yl)but-3-en-2-one]
increase in mRNA expression of Cyc-D (Cyc-D): 250% | increase in mRNA expression of LEF (LEF): 348% | increase in mRNA expression of IGF (IGF): 217% | increase in mRNA expression of VEGF (VEGF [1]): 247% | increase in expression of β-catenin protein in the cell nucleus (β-catenin): 38% | increase in cAMP concentration (cAMP): 51% | increase in expression of PKA Cα protein (PKA Cα): 52% | cell viability (MTT assay) ([2]; 24 hours culture, up to a concentration of 400 μg/ml, vs DMSO control): did not affect the cell viability | increase of proliferation rate ([2]; alpha-irone 10 μM): 10.6% | increase of proliferation rate ([2]; alpha-irone 20 μM): 37% | increase of proliferation rate ([2]; alpha-irone 50 μM): 28% | increase in concentration of IGF-1 (IGF-1): 18% | increase in concentration of VEGF (VEGF [3]): 27%
